22 molecules from US20200031805A1, “ARYL HYDROCARBON RECEPTOR (AHR) MODULATOR COMPOUNDS” (PHENEX PHARMACEUTICALS AG, priority 2017, published 2020) can be followed below.

This test deals with T1, aryl hydrocarbon receptor (AhR) (Homo sapiens, UniProt P35869).
T1 construct: The HepG2 CYP1A1-Luc cells do express basal luciferase activity that can be increased via potent AhR agonists or decreased via potent AhR antagonists; endogenous in cells; host or cells: HepG2 (DSMZ # ACC 180) stably carrying a CYP1A1 promoter-firefly luciferase reporter
T1 sequence (P35869 11-848): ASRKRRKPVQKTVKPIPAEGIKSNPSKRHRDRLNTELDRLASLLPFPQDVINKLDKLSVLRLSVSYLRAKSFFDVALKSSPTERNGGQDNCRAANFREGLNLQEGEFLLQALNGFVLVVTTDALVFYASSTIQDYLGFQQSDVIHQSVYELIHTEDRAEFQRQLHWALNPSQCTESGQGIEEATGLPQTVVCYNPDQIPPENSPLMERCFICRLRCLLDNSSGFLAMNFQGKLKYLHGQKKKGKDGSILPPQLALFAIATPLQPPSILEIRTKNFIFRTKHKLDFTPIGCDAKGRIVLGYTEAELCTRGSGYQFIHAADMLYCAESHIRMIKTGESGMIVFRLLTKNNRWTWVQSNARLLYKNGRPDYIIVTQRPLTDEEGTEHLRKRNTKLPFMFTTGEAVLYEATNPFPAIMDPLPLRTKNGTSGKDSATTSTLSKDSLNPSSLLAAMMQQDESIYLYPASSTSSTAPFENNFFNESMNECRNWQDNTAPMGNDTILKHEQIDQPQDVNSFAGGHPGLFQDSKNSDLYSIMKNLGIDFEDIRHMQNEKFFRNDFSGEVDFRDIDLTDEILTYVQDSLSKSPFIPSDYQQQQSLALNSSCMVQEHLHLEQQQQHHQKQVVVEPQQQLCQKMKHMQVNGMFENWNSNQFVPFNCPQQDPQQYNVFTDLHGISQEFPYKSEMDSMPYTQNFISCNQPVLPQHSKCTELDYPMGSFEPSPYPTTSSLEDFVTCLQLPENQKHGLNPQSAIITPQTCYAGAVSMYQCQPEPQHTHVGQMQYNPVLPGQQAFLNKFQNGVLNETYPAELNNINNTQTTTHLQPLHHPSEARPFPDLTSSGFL
Put plainly: AhR direct luciferase reporter assay in HepG2 cells (HepG2 CYP1A1-LUC). The class given is cell-based. Particulars: luciferase activity after 18 hours, no exogenous AhR agonist or 10 nM VAF347, read-out: AhR potency (AhR antagonistic potency, IC50). On the procedure:
AhR Direct Luciferase Reporter Assay in HepG2 Cells.
A stable cell line (HepG2 CYP1A1-LUC) was used in which part of the promoter region of the human CYP1A1 gene is stably integrated into the genome of human HepG2 hepatocytes (DSZM # ACC 180) in front of a Photinus pyralis Firefly Luciferase gene. […] The resulting vector was linearized with NotI, transfected into HepG2 cells (DSMZ # ACC 180) and stably transfected clones selected with 250 μg/ml Hygromycin B. After repetitive rounds of subcloning and testing for robustly regulated luciferase activity after AhR agonist stimulation, a stable clonal HepG2 CYP1A1-Luc cell line was selected.
The HepG2 CYP1A1-Luc cells do express basal luciferase activity that can be increased via potent AhR agonists or decreased via potent AhR antagonists, added to the growth medium of the cells.
Cells are further cultivated for 18 hours and luciferase activities are determined from extracts of cells in buffers containing D-Luciferine and ATP using a LUMIstar Optima microplate Luminometer from BMG Labtech.
A general note: Reporter assays use an easily measured gene product as a stand-in for the process of interest.

SMILES strings stand for the structures.

As usually defined, the IC50 is the midpoint of a concentration-inhibition curve. For `Cn1ncnc1C(=O)Nc1ccc2cc(-c3cc(F)ccc3C(F)F)[nH]c2c1` [6/3], the IC50 was below 100 nM.
With `Cn1nccc1C(=O)Nc1ccc2cc(-c3cc(F)ccc3C(F)F)[nH]c2c1` [6/4], the IC50 was below 100 nM.
Consider `Cn1nccc1C(=O)Nc1ccc2cc(-c3ccc(Cl)cc3Cl)[nH]c2c1` [2/2, N-(2-(2,4-DICHLOROPHENYL)-1H-INDOL-6-YL)-1-METHYL-1H-PYRAZOLE-5-CARBOXAMIDE], for which the IC50 lay in the range of 100 to 1000 nM.
Consider `Cc1ccccc1-c1cc2ccc(NC(=O)c3ccn[nH]3)cc2[nH]1` [Example 3, N-(2-(O-TOLYL)-1H-INDOL-6-YL)-1H-PYRAZOLE-5-CARBOXAMIDE], for which the IC50 was 100 to 1000 nM.
On to `Cc1ccccc1-c1cc2ccc(NC(=O)c3cccn3C)cc2[nH]1` [3/2, 1-METHYL-N-(2-(O-TOLYL)-1H-INDOL-6-YL)-1H-PYRROLE-2-CARBOXAMIDE], for which the 50% inhibitory concentration (IC50) is below 100 nM.
To `Cc1ccccc1-c1cc2ccc(NC(=O)c3ncnn3C)cc2[nH]1` [3/1, 1-METHYL-N-(2-(O-TOLYL)-1H-INDOL-6-YL)-1H-1,2,4-TRIAZOLE-5-CARBOXAMIDE] belongs below 100 nM; to `Cn1nccc1C(=O)Nc1ccc2cc(-c3ccccc3Cl)[nH]c2c1` [Example 2, N-(2-(2-Chlorophenyl)-1H-indol-6-yl)-1-methyl-1H-pyrazole-5-carboxamide], 100 to 1000 nM; to `Cn1nccc1C(=O)Nc1ccc2cc(-c3cccc(Cl)c3)[nH]c2c1` [1/2, N-(2-(3-CHLOROPHENYL)-1H-INDOL-6-YL)-1-METHYL-1H-PYRAZOLE-5-CARBOXAMIDE], 100 to 1000 nM.
`Cn1nccc1C(=O)Nc1ccc2cc(-c3cc(Cl)ccc3C(F)(F)F)[nH]c2c1` [6/6]: the IC50 is below 100 nM.
With `Cn1nccc1C(=O)Nc1ccc2cc(-c3ccccc3F)[nH]c2c1` [1/1, N-(2-(2-FLUOROPHENYL)-1H-INDOL-6-YL)-1-METHYL-1H-PYRAZOLE-5-CARBOXAMIDE], the IC50 lay within 100 to 1000 nM.
`Cc1ccccc1-c1cc2ccc(NC(=O)c3ccnn3C(C)C)cc2[nH]1` [2/3, 1-ISOPROPYL-N-(2-(O-TOLYL)-1H-INDOL-6-YL)-1H-PYRAZOLE-5-CARBOXAMIDE]: the IC50 was above 1000 nM.
Take `Cn1nccc1C(=O)Nc1ccc2cc(-c3ccccc3C(F)(F)F)[nH]c2c1` [2/1, 1-METHYL-N-(2-(2-(TRIFLUOROMETHYL)PHENYL)-1H-INDOL-6-YL)-1H-PYRAZOLE-5-CARBOXAMIDE]: the IC50 was below 100 nM.
In the case of `Cn1ncnc1C(=O)Nc1ccc2cc(-c3ccccc3C(F)(F)F)[nH]c2c1` [2/4, 1-METHYL-N-(2-(2-(TRIFLUOROMETHYL)PHENYL)-1H-INDOL-6-YL)-1H-1,2,4-TRIAZOLE-5-CARBOXAMIDE], the IC50 is below 100 nM.
For `Cc1ccccc1-c1cc2ccc(NC(=O)c3ccccn3)cc2[nH]1` [3/5, N-(2-(O-TOLYL)-1H-INDOL-6-YL)PICOLINAMIDE], the IC50 is below 100 nM.
As to `Cc1cc2cc(-c3ccccc3C(F)(F)F)[nH]c2cc1NC(=O)c1ccccn1` [4/1, N-(5-METHYL-2-(2-(TRIFLUOROMETHYL)PHENYL)-1H-INDOL-6-YL)PICOLINAMIDE], the IC50 was below 100 nM.
As for `Cn1nccc1C(=O)Nc1ccc2cc(-c3ccccc3C(F)F)[nH]c2c1` [6/1], the IC50 was below 100 nM.
Take `Cn1ncnc1C(=O)Nc1ccc2cc(-c3cc(Cl)ccc3C(F)(F)F)[nH]c2c1` [6/5]: the IC50 is below 100 nM.
As to `Cc1cc2cc(-c3ccccc3C(F)(F)F)[nH]c2cc1NC(=O)c1ncnn1C` [Example 4, 1-METHYL-N-(5-METHYL-2-(2-(TRIFLUOROMETHYL)PHENYL)-1H-INDOL-6-YL)-1H-1,2,4-TRIAZOLE-5-CARBOXAMIDE], the IC50 was below 100 nM.
As to `O=C(Nc1ccc2cc(-c3ccccc3C(F)(F)F)[nH]c2c1)c1ccccn1` [2/5, N-(2-(2-(TRIFLUOROMETHYL)PHENYL)-1H-INDOL-6-YL)PICOLINAMIDE], the IC50 is below 100 nM.
In the case of `Cc1ccccc1-c1cc2ccc(NC(=O)c3ccco3)cc2[nH]1` [3/3, N-(2-(O-TOLYL)-1H-INDOL-6-YL)FURAN-2-CARBOXAMIDE], the IC50 is below 100 nM.
To `Cc1ccccc1-c1cc2ccc(NC(=O)c3ccc(O)c(C(N)=O)c3)cc2[nH]1` [3/4, 4-HYDROXY-N^1-(2-(O-TOLYL)-1H-INDOL-6-YL)ISOPHTHALAMIDE] belongs above 1000 nM; to `Cn1ncnc1C(=O)Nc1ccc2cc(-c3ccccc3C(F)F)[nH]c2c1` [Example 6, N-(2-(2-(Difluoromethyl)phenyl)-1H-indol-6-yl)-1-methyl-1H-1,2,4-triazole-5-carboxamide], below 100 nM.
